Measured values taken from the kinase profiling compilation of Christmann-Franck et al. (2016).

Tests used:
Assay in all cases: radiometric filter-binding kinase assay
MAPK13 (human) = MAPK13 (human) (UniProt O15264)
PRKAA1 or PRKAA2 (rat) = conditions: accession and sequence are those of the human protein
ERBB4 (human) = ERBB4 (human) (UniProt Q15303)
NTRK1 (human) = NTRK1 (human) (UniProt P04629)
PRKACA (human) = PRKACA (human) (UniProt P17612)
GSK3B (human) = GSK3B (human) (UniProt P49841)
MAP2K2 (human) = MAP2K2 (human) (UniProt P36507)
Chain of MAP2K2 (human) (P36507 whole entry, looked up): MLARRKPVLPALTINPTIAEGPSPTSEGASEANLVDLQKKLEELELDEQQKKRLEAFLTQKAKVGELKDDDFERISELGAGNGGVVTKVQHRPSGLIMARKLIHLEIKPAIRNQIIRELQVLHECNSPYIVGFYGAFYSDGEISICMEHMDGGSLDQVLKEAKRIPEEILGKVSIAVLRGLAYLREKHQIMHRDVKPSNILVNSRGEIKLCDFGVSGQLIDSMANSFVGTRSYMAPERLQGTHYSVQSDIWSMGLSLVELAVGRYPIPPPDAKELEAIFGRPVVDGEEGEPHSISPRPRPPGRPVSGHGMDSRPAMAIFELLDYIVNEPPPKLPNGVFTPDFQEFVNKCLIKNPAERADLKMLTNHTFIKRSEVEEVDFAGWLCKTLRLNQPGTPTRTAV

FGFR1 (human) = FGFR1 (human) (UniProt P11362)
Chain of FGFR1 (human) (P11362 whole entry, looked up): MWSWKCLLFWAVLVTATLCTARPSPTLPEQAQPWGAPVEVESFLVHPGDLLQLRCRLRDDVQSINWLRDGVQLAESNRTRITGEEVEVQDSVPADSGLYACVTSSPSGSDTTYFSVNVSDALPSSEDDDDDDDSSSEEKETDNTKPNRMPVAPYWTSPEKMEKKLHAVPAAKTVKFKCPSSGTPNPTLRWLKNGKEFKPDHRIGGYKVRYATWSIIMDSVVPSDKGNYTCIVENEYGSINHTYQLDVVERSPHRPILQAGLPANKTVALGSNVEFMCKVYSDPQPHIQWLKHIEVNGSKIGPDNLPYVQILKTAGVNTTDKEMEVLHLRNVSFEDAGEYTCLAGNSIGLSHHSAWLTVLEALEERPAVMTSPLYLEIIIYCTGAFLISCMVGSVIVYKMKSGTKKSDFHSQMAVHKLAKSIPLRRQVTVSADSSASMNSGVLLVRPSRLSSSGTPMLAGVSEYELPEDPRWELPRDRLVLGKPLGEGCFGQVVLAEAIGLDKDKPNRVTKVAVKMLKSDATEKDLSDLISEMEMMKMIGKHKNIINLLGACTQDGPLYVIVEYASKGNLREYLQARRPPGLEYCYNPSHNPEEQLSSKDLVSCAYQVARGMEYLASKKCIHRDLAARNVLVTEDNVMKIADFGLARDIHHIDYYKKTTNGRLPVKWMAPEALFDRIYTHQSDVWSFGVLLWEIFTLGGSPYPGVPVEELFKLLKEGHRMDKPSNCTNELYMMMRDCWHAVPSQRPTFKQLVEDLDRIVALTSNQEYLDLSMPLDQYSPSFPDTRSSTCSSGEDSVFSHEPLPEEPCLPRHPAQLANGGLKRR

EEF2K (human) = EEF2K (human) (UniProt O00418)
Chain of EEF2K (human) (O00418 whole entry, looked up): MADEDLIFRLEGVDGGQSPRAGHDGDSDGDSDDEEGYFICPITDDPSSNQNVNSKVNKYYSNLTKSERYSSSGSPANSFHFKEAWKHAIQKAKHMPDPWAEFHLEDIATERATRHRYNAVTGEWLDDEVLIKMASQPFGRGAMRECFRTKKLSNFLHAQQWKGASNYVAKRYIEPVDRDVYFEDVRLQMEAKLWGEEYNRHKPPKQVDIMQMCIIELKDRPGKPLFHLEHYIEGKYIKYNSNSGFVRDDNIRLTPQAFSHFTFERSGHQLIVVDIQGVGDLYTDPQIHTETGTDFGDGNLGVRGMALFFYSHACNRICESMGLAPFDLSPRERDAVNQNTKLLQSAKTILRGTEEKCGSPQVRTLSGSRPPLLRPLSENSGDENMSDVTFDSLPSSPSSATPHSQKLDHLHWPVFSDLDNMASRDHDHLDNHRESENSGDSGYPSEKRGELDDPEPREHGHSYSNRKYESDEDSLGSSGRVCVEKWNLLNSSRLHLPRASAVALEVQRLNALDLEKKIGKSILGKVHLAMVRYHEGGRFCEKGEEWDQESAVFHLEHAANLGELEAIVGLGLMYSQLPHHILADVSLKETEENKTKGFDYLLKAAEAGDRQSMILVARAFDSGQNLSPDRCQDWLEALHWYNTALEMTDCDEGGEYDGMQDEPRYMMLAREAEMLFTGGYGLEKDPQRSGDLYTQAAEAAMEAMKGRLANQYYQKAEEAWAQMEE

EPHB3 (human) = EPHB3 (human) (UniProt P54753)
CHEK2 (human) = CHEK2 (human) (UniProt O96017)
[1] = target: STK11 CAB39 STRADA (human) (UniProt Q9Y376+Q7RTN6+Q15831)
MAPK1 (human) = MAPK1 (human) (UniProt P28482)
ROCK2 (rat) = conditions: accession and sequence are those of the human protein
IKBKB (human) = IKBKB (human) (UniProt O14920)
Chain of IKBKB (human) (O14920 whole entry, looked up): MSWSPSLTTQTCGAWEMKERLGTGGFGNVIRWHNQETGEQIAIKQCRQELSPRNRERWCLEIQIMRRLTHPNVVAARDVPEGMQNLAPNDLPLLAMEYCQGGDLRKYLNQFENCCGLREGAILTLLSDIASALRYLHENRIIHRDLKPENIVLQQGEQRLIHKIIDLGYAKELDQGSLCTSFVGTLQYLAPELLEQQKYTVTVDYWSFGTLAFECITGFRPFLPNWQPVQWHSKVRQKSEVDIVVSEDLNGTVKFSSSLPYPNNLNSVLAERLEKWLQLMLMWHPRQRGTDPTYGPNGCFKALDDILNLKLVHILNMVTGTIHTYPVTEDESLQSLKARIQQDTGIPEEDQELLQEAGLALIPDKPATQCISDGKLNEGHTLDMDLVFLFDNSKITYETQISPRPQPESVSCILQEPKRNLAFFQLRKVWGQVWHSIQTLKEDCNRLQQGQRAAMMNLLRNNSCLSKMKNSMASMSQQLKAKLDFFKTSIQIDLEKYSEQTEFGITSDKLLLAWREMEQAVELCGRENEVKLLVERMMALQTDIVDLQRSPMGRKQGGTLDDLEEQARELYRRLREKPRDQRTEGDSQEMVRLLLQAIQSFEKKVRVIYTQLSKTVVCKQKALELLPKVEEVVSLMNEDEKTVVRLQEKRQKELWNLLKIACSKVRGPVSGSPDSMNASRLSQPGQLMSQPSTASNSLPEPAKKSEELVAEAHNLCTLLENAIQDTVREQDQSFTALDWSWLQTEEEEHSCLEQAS

SRC (human) = SRC (human) (UniProt P12931)
CSNK2A1 (human) = CSNK2A1 (human) (UniProt P68400)
Chain of CSNK2A1 (human) (P68400 whole entry, looked up): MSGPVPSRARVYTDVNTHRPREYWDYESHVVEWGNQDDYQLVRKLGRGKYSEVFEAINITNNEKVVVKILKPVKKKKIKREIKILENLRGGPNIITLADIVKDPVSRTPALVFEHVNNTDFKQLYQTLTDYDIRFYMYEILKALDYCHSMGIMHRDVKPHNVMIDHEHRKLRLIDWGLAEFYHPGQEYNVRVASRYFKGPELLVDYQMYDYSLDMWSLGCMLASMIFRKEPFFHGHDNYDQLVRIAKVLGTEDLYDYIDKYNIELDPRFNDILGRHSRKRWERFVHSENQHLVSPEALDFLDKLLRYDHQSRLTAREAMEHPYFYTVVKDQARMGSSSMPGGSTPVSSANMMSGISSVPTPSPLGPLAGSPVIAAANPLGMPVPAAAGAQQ

RPS6KA1 KD1 KD2 (human) = RPS6KA1 KD1 KD2 (human) (UniProt Q15418)
Chain of RPS6KA1 KD1 KD2 (human) (Q15418 whole entry, looked up): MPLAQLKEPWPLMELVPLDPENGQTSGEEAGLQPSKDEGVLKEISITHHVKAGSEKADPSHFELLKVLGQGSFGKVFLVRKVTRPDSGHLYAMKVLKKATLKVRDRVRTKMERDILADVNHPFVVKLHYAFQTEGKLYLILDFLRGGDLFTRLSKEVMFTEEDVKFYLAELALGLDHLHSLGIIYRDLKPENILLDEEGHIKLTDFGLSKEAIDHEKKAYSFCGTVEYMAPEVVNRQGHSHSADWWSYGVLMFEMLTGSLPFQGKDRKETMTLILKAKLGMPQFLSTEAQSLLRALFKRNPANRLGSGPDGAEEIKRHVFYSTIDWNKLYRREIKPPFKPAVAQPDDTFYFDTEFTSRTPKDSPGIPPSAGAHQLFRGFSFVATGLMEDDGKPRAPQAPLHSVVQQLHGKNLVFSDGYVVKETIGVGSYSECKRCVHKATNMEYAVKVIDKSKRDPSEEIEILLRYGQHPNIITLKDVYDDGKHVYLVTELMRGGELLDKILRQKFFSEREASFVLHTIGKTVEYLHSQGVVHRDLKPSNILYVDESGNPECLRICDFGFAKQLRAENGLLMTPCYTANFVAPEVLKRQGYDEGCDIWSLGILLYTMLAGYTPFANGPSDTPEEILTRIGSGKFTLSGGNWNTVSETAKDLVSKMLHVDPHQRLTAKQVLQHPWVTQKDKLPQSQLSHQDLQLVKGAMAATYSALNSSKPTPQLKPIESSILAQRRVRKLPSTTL

LCK (mouse) = conditions: accession and sequence are those of the human protein
MKNK1 (human) = MKNK1 (human) (UniProt Q9BUB5)
Chain of MKNK1 (human) (Q9BUB5 whole entry, looked up): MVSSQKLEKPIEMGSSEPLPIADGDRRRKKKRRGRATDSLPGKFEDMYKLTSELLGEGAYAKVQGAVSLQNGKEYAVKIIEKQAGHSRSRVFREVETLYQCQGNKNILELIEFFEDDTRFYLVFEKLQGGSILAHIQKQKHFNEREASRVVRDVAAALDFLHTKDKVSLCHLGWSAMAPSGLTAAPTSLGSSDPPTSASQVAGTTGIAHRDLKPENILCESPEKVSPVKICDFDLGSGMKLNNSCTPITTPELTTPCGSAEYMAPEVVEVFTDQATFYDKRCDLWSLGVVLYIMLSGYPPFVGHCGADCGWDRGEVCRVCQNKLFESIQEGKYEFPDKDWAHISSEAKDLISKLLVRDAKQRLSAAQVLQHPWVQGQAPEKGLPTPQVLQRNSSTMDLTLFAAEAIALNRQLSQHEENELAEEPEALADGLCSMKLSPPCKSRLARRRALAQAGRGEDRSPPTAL

MAPKAPK3 (human) = MAPKAPK3 (human) (UniProt Q16644)
Chain of MAPKAPK3 (human) (Q16644 whole entry, looked up): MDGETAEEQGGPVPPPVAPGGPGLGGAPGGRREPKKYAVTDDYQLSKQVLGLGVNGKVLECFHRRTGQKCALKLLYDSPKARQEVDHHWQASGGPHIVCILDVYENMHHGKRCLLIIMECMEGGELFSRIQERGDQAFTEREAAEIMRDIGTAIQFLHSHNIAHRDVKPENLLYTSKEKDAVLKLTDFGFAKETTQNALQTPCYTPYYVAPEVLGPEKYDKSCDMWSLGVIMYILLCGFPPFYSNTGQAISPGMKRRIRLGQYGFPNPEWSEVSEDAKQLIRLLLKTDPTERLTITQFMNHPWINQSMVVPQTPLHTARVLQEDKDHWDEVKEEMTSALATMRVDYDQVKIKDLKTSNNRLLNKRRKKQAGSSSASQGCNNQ

PRKCZ (human) = PRKCZ (human) (UniProt Q05513)
PHKG1 (human) = PHKG1 (human) (UniProt Q16816)
DAPK1 (human) = DAPK1 (human) (UniProt P53355)
AURKB (human) = AURKB (human) (UniProt Q96GD4)
Chain of AURKB (human) (Q96GD4 whole entry, looked up): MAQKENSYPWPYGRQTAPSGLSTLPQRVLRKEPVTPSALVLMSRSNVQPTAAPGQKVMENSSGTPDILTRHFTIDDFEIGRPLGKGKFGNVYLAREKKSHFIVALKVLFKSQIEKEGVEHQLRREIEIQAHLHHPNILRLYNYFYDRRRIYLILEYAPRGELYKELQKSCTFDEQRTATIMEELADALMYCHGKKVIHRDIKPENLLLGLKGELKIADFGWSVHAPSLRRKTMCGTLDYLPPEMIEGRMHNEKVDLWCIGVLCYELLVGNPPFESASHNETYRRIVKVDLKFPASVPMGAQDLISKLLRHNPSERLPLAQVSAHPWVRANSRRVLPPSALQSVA

MKNK2 (human) = MKNK2 (human) (UniProt Q9HBH9)
MELK (human) = MELK (human) (UniProt Q14680)
MARK4 (human) = MARK4 (human) (UniProt Q96L34)
TTK (human) = TTK (human) (UniProt P33981)
MAP3K9 (human) = MAP3K9 (human) (UniProt P80192)
CSK (human) = CSK (human) (UniProt P41240)
CDK2 CCNA2 (human) = CDK2 CCNA2 (human) (UniProt P20248+P24941)
INSRR (human) = INSRR (human) (UniProt P14616)
MINK1 (human) = MINK1 (human) (UniProt Q8N4C8)
MYLK (human) = MYLK (human) (UniProt Q15746)

Cc1ccc(=O)n(-c2ccccc2)c1
residual activity (MAPK13 (human); compound 1.0 µM): 97% | residual activity (MAPK13 (human); compound 10.0 µM): 91% | residual activity (PRKAA1 or PRKAA2 (rat); compound 1.0 µM): 99% | residual activity (PRKAA1 or PRKAA2 (rat); compound 10.0 µM): 103% | residual activity (ERBB4 (human); compound 10.0 µM): 106% | residual activity (NTRK1 (human); compound 1.0 µM): 103% | residual activity (NTRK1 (human); compound 10.0 µM): 112% | residual activity (PRKACA (human); compound 1.0 µM): 90% | residual activity (PRKACA (human); compound 10.0 µM): 97% | residual activity (GSK3B (human); compound 1.0 µM): 102% | residual activity (GSK3B (human); compound 10.0 µM): 99% | residual activity (MAP2K2 (human); compound 1.0 µM): 58% | residual activity (MAP2K2 (human); compound 10.0 µM): 35% | residual activity (FGFR1 (human); compound 1.0 µM): 101% | residual activity (EEF2K (human); compound 1.0 µM): 83% | residual activity (EEF2K (human); compound 10.0 µM): 87% | residual activity (EPHB3 (human); compound 1.0 µM): 96% | residual activity (EPHB3 (human); compound 10.0 µM): 112% | residual activity (CHEK2 (human); compound 1.0 µM): 119% | residual activity (CHEK2 (human); compound 10.0 µM): 97% | residual activity ([1]; compound 1.0 µM): 103% | residual activity ([1]; compound 10.0 µM): 95% | residual activity (MAPK1 (human); compound 1.0 µM): 95% | residual activity (MAPK1 (human); compound 10.0 µM): 97% | residual activity (ROCK2 (rat); compound 1.0 µM): 94% | residual activity (ROCK2 (rat); compound 10.0 µM): 84% | residual activity (IKBKB (human); compound 1.0 µM): 87% | residual activity (IKBKB (human); compound 10.0 µM): 88% | residual activity (SRC (human); compound 1.0 µM): 123% | residual activity (SRC (human); compound 10.0 µM): 102% | residual activity (CSNK2A1 (human); compound 1.0 µM): 98% | residual activity (CSNK2A1 (human); compound 10.0 µM): 103% | residual activity (RPS6KA1 KD1 KD2 (human); compound 1.0 µM): 107% | residual activity (RPS6KA1 KD1 KD2 (human); compound 10.0 µM): 114% | residual activity (LCK (mouse); compound 1.0 µM): 96% | residual activity (LCK (mouse); compound 10.0 µM): 102% | residual activity (MKNK1 (human); compound 1.0 µM): 101% | residual activity (MKNK1 (human); compound 10.0 µM): 99% | residual activity (MAPKAPK3 (human); compound 1.0 µM): 92% | residual activity (MAPKAPK3 (human); compound 10.0 µM): 84% | residual activity (PRKCZ (human); compound 1.0 µM): 109% | residual activity (PRKCZ (human); compound 10.0 µM): 97% | residual activity (PHKG1 (human); compound 1.0 µM): 103% | residual activity (PHKG1 (human); compound 10.0 µM): 96% | residual activity (DAPK1 (human); compound 1.0 µM): 112% | residual activity (DAPK1 (human); compound 10.0 µM): 100% | residual activity (AURKB (human); compound 1.0 µM): 93% | residual activity (AURKB (human); compound 10.0 µM): 87% | residual activity (MKNK2 (human); compound 1.0 µM): 90% | residual activity (MKNK2 (human); compound 10.0 µM): 93% | residual activity (MELK (human); compound 1.0 µM): 94% | residual activity (MELK (human); compound 10.0 µM): 98% | residual activity (MARK4 (human); compound 10.0 µM): 74% | residual activity (TTK (human); compound 1.0 µM): 73% | residual activity (TTK (human); compound 10.0 µM): 76% | residual activity (MAP3K9 (human); compound 1.0 µM): 95% | residual activity (MAP3K9 (human); compound 10.0 µM): 89% | residual activity (CSK (human); compound 1.0 µM): 98% | residual activity (CSK (human); compound 10.0 µM): 87% | residual activity (CDK2 CCNA2 (human); compound 1.0 µM): 103% | residual activity (CDK2 CCNA2 (human); compound 10.0 µM): 97% | residual activity (INSRR (human); compound 1.0 µM): 104% | residual activity (INSRR (human); compound 10.0 µM): 99% | residual activity (MINK1 (human); compound 1.0 µM): 106% | residual activity (MINK1 (human); compound 10.0 µM): 108% | residual activity (MYLK (human); compound 1.0 µM): 102% | residual activity (MYLK (human); compound 10.0 µM): 89%

O=c1c(O)c(-c2ccc(O)c(O)c2)oc2cc(O)c(O)c(O)c12
residual activity (MAPK13 (human); compound 1.0 µM): 96% | residual activity (MAPK13 (human); compound 10.0 µM): 97% | residual activity (PRKAA1 or PRKAA2 (rat); compound 1.0 µM): 73% | residual activity (PRKAA1 or PRKAA2 (rat); compound 10.0 µM): 9% | residual activity (ERBB4 (human); compound 1.0 µM): 109% | residual activity (ERBB4 (human); compound 10.0 µM): 44% | residual activity (NTRK1 (human); compound 1.0 µM): 92% | residual activity (NTRK1 (human); compound 10.0 µM): 29% | residual activity (PRKACA (human); compound 1.0 µM): 109% | residual activity (PRKACA (human); compound 10.0 µM): 79% | residual activity (GSK3B (human); compound 1.0 µM): 94% | residual activity (GSK3B (human); compound 10.0 µM): 19% | residual activity (MAP2K2 (human); compound 1.0 µM): 94% | residual activity (FGFR1 (human); compound 1.0 µM): 27% | residual activity (FGFR1 (human); compound 10.0 µM): 14% | residual activity (EEF2K (human); compound 1.0 µM): 110% | residual activity (EEF2K (human); compound 10.0 µM): 109% | residual activity (EPHB3 (human); compound 1.0 µM): 93% | residual activity (EPHB3 (human); compound 10.0 µM): 61% | residual activity (CHEK2 (human); compound 1.0 µM): 48% | residual activity (CHEK2 (human); compound 10.0 µM): 5% | residual activity ([1]; compound 1.0 µM): 95% | residual activity ([1]; compound 10.0 µM): 55% | residual activity (MAPK1 (human); compound 1.0 µM): 107% | residual activity (MAPK1 (human); compound 10.0 µM): 105% | residual activity (ROCK2 (rat); compound 1.0 µM): 95% | residual activity (ROCK2 (rat); compound 10.0 µM): 56% | residual activity (IKBKB (human); compound 1.0 µM): 100% | residual activity (IKBKB (human); compound 10.0 µM): 16% | residual activity (SRC (human); compound 1.0 µM): 38% | residual activity (SRC (human); compound 10.0 µM): 25% | residual activity (CSNK2A1 (human); compound 1.0 µM): 46% | residual activity (CSNK2A1 (human); compound 10.0 µM): 7% | residual activity (RPS6KA1 KD1 KD2 (human); compound 1.0 µM): 51% | residual activity (RPS6KA1 KD1 KD2 (human); compound 10.0 µM): 15% | residual activity (LCK (mouse); compound 1.0 µM): 102% | residual activity (LCK (mouse); compound 10.0 µM): 95% | residual activity (MKNK1 (human); compound 1.0 µM): 61% | residual activity (MKNK1 (human); compound 10.0 µM): 12% | residual activity (MAPKAPK3 (human); compound 1.0 µM): 92% | residual activity (MAPKAPK3 (human); compound 10.0 µM): 14% | residual activity (PRKCZ (human); compound 1.0 µM): 62% | residual activity (PRKCZ (human); compound 10.0 µM): 20% | residual activity (PHKG1 (human); compound 1.0 µM): 98% | residual activity (PHKG1 (human); compound 10.0 µM): 2% | residual activity (DAPK1 (human); compound 1.0 µM): 95% | residual activity (AURKB (human); compound 1.0 µM): 62% | residual activity (AURKB (human); compound 10.0 µM): 8% | residual activity (MKNK2 (human); compound 1.0 µM): 63% | residual activity (MKNK2 (human); compound 10.0 µM): 26% | residual activity (MELK (human); compound 1.0 µM): 53% | residual activity (MELK (human); compound 10.0 µM): 9% | residual activity (MARK4 (human); compound 1.0 µM): 34% | residual activity (MARK4 (human); compound 10.0 µM): 20% | residual activity (TTK (human); compound 1.0 µM): 75% | residual activity (TTK (human); compound 10.0 µM): 36% | residual activity (MAP3K9 (human); compound 1.0 µM): 100% | residual activity (MAP3K9 (human); compound 10.0 µM): 24% | residual activity (CSK (human); compound 1.0 µM): 125% | residual activity (CSK (human); compound 10.0 µM): 74% | residual activity (CDK2 CCNA2 (human); compound 1.0 µM): 89% | residual activity (CDK2 CCNA2 (human); compound 10.0 µM): 32% | residual activity (INSRR (human); compound 1.0 µM): 76% | residual activity (INSRR (human); compound 10.0 µM): 21% | residual activity (MINK1 (human); compound 1.0 µM): 56% | residual activity (MINK1 (human); compound 10.0 µM): 10% | residual activity (MYLK (human); compound 1.0 µM): 87% | residual activity (MYLK (human); compound 10.0 µM): 23%
